US10538567B2, “Compounds as peptidic trigonal GLP1/glucagon/GIP receptor agonists” (priority 2016, dated 2020)
Numbered stars: 1 amine (or outer) side, 2 acyl side, 3 side chain; on linkers, the order of the positions; unused ones are H or OH. Square brackets hold non-standard residues; d marks the D form. Side chains are listed from the residue outwards. Peptide text beside a SMILES is read from it. * marks the point of attachment. γGlu = O=C(O)[C@H](CCC(=O)[*:2])N[*:1]; Palmitoyl = CCCCCCCCCCCCCCCC(=O)*; Aib = CC(C)(N)C(=O)O

Assays:
[1] = target: T1, human GLP-1 receptor (Homo sapiens, UniProt P43220); assay: cAMP response (HTRF) of HEK-293 cells stably expressing human GLP-1 receptor; format: cell-based; settings: Table 8; read-out: EC50 hGLP-1R
T1 construct: expressed in transfected cells; host or cells: HEK-293
Procedure: cAMP content of cells was determined using a kit from Cisbio Corp. (cat. no. 62AM4PEJ) based on HTRF (Homogenous Time Resolved Fluorescence). For preparation, cells were split into T175 culture flasks and grown overnight to near confluency in medium (DMEM/10% FBS). Medium was then removed and cells washed with PBS lacking calcium and magnesium, followed by proteinase treatment with accutase (Sigma-Aldrich cat. no. A6964). Detached cells were washed and resuspended in assay buffer (1×HBSS; 20 mM HEPES, 0.1% BSA, 2 mM IBMX) and cellular density determined. They were then diluted to 400000 cells/ml and 25 μl-aliquots dispensed into the wells of 96-well plates. For measurement, 25 μl of test compound in assay buffer was added to the wells, followed by incubation for 30 minutes at room temperature.
Potencies of peptidic compounds at the GLP-1, glucagon and GIP receptors were determined by exposing cells expressing human glucagon receptor (hGlucagon R), human GIP receptor (hGIP-R) or human GLP-1 receptor (hGLP-1 R) to the listed compounds at increasing concentrations and measuring the formed cAMP as described in Methods.

[2] = tested on: male ApoE KO mice; assay: Anti-atherosclerotic activity in ApoE KO mice, 16 weeks minipump infusion; format: in vivo; settings: 150 μg/kg/day; for reduction of atherosclerotic plaques relative to vehicle control: 4 months (16 weeks) s.c. minipump; for LDL-cholesterol: 16 weeks
Description: The apolipoprotein E (ApoE) knockout (KO) mouse model is widely used to investigate atherosclerosis. These mice spontaneously develop atherosclerotic lesions that are morphologically similar to those observed in humans (Meir & Leitersdorf 2004, Arterioscler Thromb Vasc Biol 24: 1006-1014, Rosenfeld et al. 2000, Arterioscler Thromb Vasc Biol 20: 2587-2592).
Male ApoE KO mice (B.129P2-apoetm1Unc/J) were randomly allocated to control or treatment groups (N=15 per group); wild-type mice (C57BL6/J) received vehicle treatment and acted as a second, healthy control.
ApoE KO and wild-type mice received constant 16 weeks infusion using subcutaneous osmotic minipumps (ALZET™) filled with either vehicle (sterile acetate buffer, pH 4.5), Peptides SEQ ID NO. 6 & SEQ ID NO. 11 (150 μg/kg/day) or with Liraglutide (600 μg/kg/day). Body weight and food intake was monitored throughout the study on a weekly basis.
Blood samples for blood lipid analysis were drawn before treatment and at weeks 7 and 16 to analyze total cholesterol, low density lipoprotein (LDL) cholesterol and high density lipoprotein (HDL) cholesterol (not shown).
The aorta was dissected and aortic atherosclerotic plaque formation was measured as absolute and relative plaque area (% oilred stained area of total aortic surface area) using quantitative and automated image analysis.

T1 sequence (P43220 24-463): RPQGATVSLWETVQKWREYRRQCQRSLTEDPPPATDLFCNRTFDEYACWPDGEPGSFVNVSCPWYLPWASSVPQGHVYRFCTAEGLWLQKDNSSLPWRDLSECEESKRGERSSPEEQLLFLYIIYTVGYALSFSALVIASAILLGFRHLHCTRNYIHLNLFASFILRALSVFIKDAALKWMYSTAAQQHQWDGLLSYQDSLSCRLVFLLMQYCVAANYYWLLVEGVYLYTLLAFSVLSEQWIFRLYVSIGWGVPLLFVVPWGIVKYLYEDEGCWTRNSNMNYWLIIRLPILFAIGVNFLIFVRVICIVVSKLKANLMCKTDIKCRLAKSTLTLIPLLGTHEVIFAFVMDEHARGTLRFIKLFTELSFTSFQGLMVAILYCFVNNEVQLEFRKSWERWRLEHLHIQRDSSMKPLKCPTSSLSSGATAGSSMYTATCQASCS

With `CCCCCCCCCCCCCCCC(=O)N[C@@H](CCC(=O)N[C@@H](CCC(=O)NCCCC[C@H](NC(=O)[C@H](CC(C)C)NC(=O)[C@H](CCCCN)NC(=O)[C@H](CO)NC(=O)[C@H](CC(C)C)NC(=O)[C@H](CC(=O)O)NC(=O)[C@H](CO)NC(=O)[C@@H](NC(=O)[C@H](Cc1ccccc1)NC(=O)[C@@H](NC(=O)CNC(=O)[C@H](Cc1c[nH]cn1)NC(=O)C(C)(C)NC(=O)[C@@H](N)Cc1c[nH]cn1)[C@@H](C)O)[C@@H](C)O)C(=O)N[C@@H](CCC(=O)O)C(=O)N[C@@H](CCC(=O)O)C(=O)N[C@@H](CCC(N)=O)C(=O)N[C@@H](CCCNC(=N)N)C(=O)N[C@@H](CCC(N)=O)C(=O)N[C@@H](CCCCN)C(=O)N[C@@H](CCC(=O)O)C(=O)N[C@@H](Cc1ccccc1)C(=O)N[C@H](C(=O)N[C@@H](CCC(=O)O)C(=O)N[C@@H](Cc1c[nH]c2ccccc12)C(=O)N[C@@H](CC(C)C)C(=O)N[C@@H](CCCCN)C(=O)N[C@@H](C)C(=O)NCC(=O)NCC(=O)N[C@@H](Cc1c[nH]cn1)C(=O)N1CCC[C@H]1C(=O)N[C@@H](CO)C(=O)NC(C)(C)C(=O)N[C@@H](CCCCN)C(=O)N1CCC[C@H]1C(=O)N1CCC[C@H]1C(=O)N1CCC[C@H]1C(=O)N[C@@H](CCCCN)C(N)=O)[C@@H](C)CC)C(=O)O)C(=O)O` [SEQ ID NO: 6, H-Aib-H-G-T-F-T-S-D-L-S-K-L-K[gGlu-gGlu-Palm]-E-E-Q-R-Q-K-E-F-I-E-W-L-K-A-G-G-H-P-S-Aib-K-P-P-P-K-NH2] the EC50 [1] was 1.4 pM, the “reduction of atherosclerotic plaques relative to vehicle control” value [2] was 63% and the “LDL-cholesterol” value [2] was “marked reduction”.

For `CCCCCCCCCCCCCCCC(=O)N[C@@H](CCC(=O)N[C@@H](CCC(=O)NCCCC[C@H](NC(=O)[C@H](CC(C)C)NC(=O)[C@H](CCCCN)NC(=O)[C@H](CO)NC(=O)[C@H](CC(C)C)NC(=O)[C@H](CC(=O)O)NC(=O)[C@H](CO)NC(=O)[C@@H](NC(=O)[C@H](Cc1ccccc1)NC(=O)[C@@H](NC(=O)CNC(=O)[C@H](Cc1c[nH]cn1)NC(=O)C(C)(C)NC(=O)[C@@H](N)Cc1c[nH]cn1)[C@@H](C)O)[C@@H](C)O)C(=O)N[C@@H](CCC(=O)O)C(=O)N[C@@H](CCC(=O)O)C(=O)N[C@@H](CCC(N)=O)C(=O)N[C@@H](CCCNC(=N)N)C(=O)N[C@@H](CCC(N)=O)C(=O)NC(C)(C)C(=O)N[C@@H](CCC(=O)O)C(=O)N[C@@H](Cc1ccccc1)C(=O)N[C@H](C(=O)N[C@@H](CCC(=O)O)C(=O)N[C@@H](Cc1c[nH]c2ccccc12)C(=O)N[C@@H](CC(C)C)C(=O)N[C@@H](CCCCN)C(=O)N[C@@H](C)C(=O)N[C@H](C)C(=O)NCC(=O)N1CCC[C@H]1C(=O)N1CCC[C@H]1C(=O)N[C@@H](CO)C(=O)NC(C)(C)C(=O)N[C@@H](CCCCN)C(=O)N1CCC[C@H]1C(=O)N1CCC[C@H]1C(=O)N1CCC[C@H]1C(=O)N[C@@H](CCCCN)C(N)=O)[C@@H](C)CC)C(=O)O)C(=O)O` [SEQ ID NO: 11, H-Aib-H-G-T-F-T-S-D-L-S-K-L-K[gGlu-gGlu-Palm]-E-E-Q-R-Q-Aib-E-F-I-E-W-L-K-A-dAla-G-P-P-S-Aib-K-P-P-P-K-NH2] (H-H[Aib]HGTFTSDLSKLK([γGlu-γGlu-Palmitoyl])EEQRQ[Aib]EFIEWLKA[dA]GPPS[Aib]KPPPK-NH2), the “reduction of atherosclerotic plaques relative to vehicle control” value [2] was 73% and the “LDL-cholesterol” value [2] was “marked reduction”.
